Literature values in US12708665B2, “Anti-IL-1β antibody therapy in arrhythmogenic cardiomyopathy (ACM)” (Beth Israel Deaconess Medical Center, Inc., priority 2019, dated 2026).

Columns and labels:
[1] = test system: in vitro and in vivo models of ACM; details: multiple in vitro and in vivo models of ACM, human iPSC-cardiac myocytes from ACM patients; cited from earlier work
[2] = test system: patients with coronary artery disease; details: cited from earlier work

Molecule | effect on ACM disease phenotype (arrhythmias, exercise-induced sudden death, myocyte injury and apoptosis, inflammation, contractile dysfunction) [1] | infectious complications related to immunosuppression ([2]; in vivo) | major adverse cardiac events ([2]; patients with coronary artery disease, CANTOS trial)
Cn1cc(C2=C(c3ccc(Cl)cc3Cl)C(=O)NC2=O)c2ccccc21 [SB216763] | prevent and/or reverse the full ACM disease phenotype | – | –
monoclonal antibody against IL-1β: monoclonal antibody against IL-1β used in the CANTOS trial (ref. 36) | – | not associated with significant infectious complications | significantly reduced
